Measured values: patent US10935552B2, “Aie luminogens for visualization and treatment of cancer” (THE HONG KONG UNIVERSITY OF SCIENCE AND TECHNOLOGY, priority 2015, dated 2021)

What was measured:
[1] = system: HeLa cells; assay: Cell imaging under fluorescent microscope, HeLa cells; type: cell-based, human; settings: Hela, 200 nM DPA-IQ, 10 min
Protocol: Cell culture: HeLa cells were cultured in the MEM containing 10% FBS and 1% antibiotics (100 units/mL penicillin and 100 µg/mL streptomycin) in a 5% CO2 humidity incubator at 37° C. COS-7, MDA-MB-231, MCF-7, and MDCK-II cells were culture in the DMEM containing 10% FBS and antibiotics (100 units/mL penicillin and 100 µg/mL streptomycin) in a 5% CO2 humidity incubator at 37° C.
Cell imaging: two different kind of cells were grown overnight on a 35 mm petri dish with a cover slip. The live cells were incubated with 200 nM of TPE-IQ-2O for 1, 5, 10, and 20 mins. In a typical experiment, 2 μL of a 10 mM stock solution of TPE-IQ-2O in DMSO was diluted to 2 mL with cell culture medium, followed by further dilution to desired concentration. The cells were imaged under a fluorescent microscope (BX41 Microscope) using the same excitation and emission filters: excitation filter=400-440 nm, dichroic mirror=455 nm, and emission filter=465 nm long pass.
Two different kinds of cells were grown overnight on a 35 mm petri dish with a cover slip. The live cells were incubated with 200 nM of TPE-IQ-20 for 20, 10, 5, and 1 mins. The Hela cells were stained by TPE-IQ-2O; the COS-7 cells were stained by TPE-IQ-2O; the Hela cells and COS-7 cells were co-cultured and stained together by TPE-IQ-2O. Condition: 200 nM (Filter: both close; Channel 5; EX: 400-440 nm; Exposure time: bright field: 1000 ms Fluorescence: 1000 ms.
Two different kinds of cells were grown overnight on a 35 mm petri dish with a cover slip. The live cells were incubated with 200 nM of TPE-IQ-2O for 10 mins. The Hela cells were stained by TPE-IQ-2O; the MDCKII cells were stained by TPE-IQ-2O; the MDA-MB-231 cells and COS-7 cells were co-cultured and stained together by TPE-IQ-2O. Condition: 200 nM 10 mins (Filter: both close; Channel 5; EX: 400-440 nm; Exposure time: bright field: 1000 ms Fluorescence: 1000 ms.
(§1) HepG2 cells (human hepatocarcinoma cell line), PC-9 cells (human lung adenocarcinoma cell line), Hela cells (human cervical carcinoma cell line), and LX2 cells (normal cell, human hepatic stellate cell line) were stained with 200 nM DPA-IQ for 10 min. Images were taken under the same equipment settings. Scale bar: 30 μm. Excitation wavelength: 400-440 nm.

[2] = system: mitochondria; assay: Co-staining with commercial organelle trackers in HeLa cells (mitochondria staining); type: cell-based, human
Protocol: The HeLa cells were grown overnight on a 35 mm petri dish with a cover slip. Then the HeLa cells were stained with 200 nM TPE-IQ-2O and Mito-tracker red (50 nM)/Lyso-tracker red (50 nM)/DAPI (500 nM) for 20 mins.
The DMSO solution of DPA-IQ was almost non-emissive while the aggregation state powder of this material emits strong green luminescence upon the UV excitation.
The commercially available MitoTracker Red FM is co-stained as a control together with Naph-IQ.

[3] = system: PC-9 cells; assay: Cell imaging, PC-9 cells; type: cell-based, human; settings: PC-9, 200 nM DPA-IQ, 10 min
Protocol: (§2) The PC-9, HepG2, and HCC827 cells were grown overnight on a 35 mm petri dish with a cover slip. The live cells were incubated with 200 nM of TPE-IQ-2O for 20 and 10 mins. In all the experiments, the cancer cells are fluorescent in solely staining.
as §1

[4] = system: LX2 cells; assay: Cell imaging, LX2 normal cells; type: cell-based, human; settings: LX2, 200 nM DPA-IQ, 10 min
Protocol: The LX2 cells were grown overnight on a 35 mm petri dish with a cover slip. The live cells were incubated with 200 nM of TPE-IQ-2O for 20 and 10 mins.
as §1

[5] = system: HeLa cells; assay: MTT cell viability assay, HeLa cells; type: cell-based, human; settings: HeLa, different concentrations, 24 hrs
Protocol: Hela cells were incubated with different concentrations of Naph-IQ in culture medium for 24 hours.
Before employing AIE-LysoY as a fluorescent visualizer of lysosome, a 3-(4,5-dimethyl-2-thiazolyl)-2,5-diphenyltetrazolium bromide (MTT) cell proliferation assay was first conducted to evaluate its cytotoxicity. […] The good biocompatibility of AIE-LysoY enables its application as a fluorescent tracer to follow the autophagic process of lysosome.

[6] = system: HepG2 cells; assay: Cell imaging, HepG2 cells; type: cell-based, human; settings: HepG2, 200 nM DPA-IQ, 10 min
Protocol: as §2, §1

[7] = system: lysosome; assay: Lysosome imaging in HeLa cells, co-staining with LTR; type: cell-based, human; settings: HeLa cells
Protocol: Then, AIE-LysoY was applied to lysosome imaging and its lysosome-targeting performance was assessed by fluorescence microscope. HeLa cells were stained with 10 μM of AIE-LysoY for 10 min, followed by washing away the abundant molecules of AIE-LysoY and incubation with 50 nM of LTR for 30 min. […] The fluorescence of AIE-LysoY overlaps perfectly with that of LTR, indicating the lysosome-targeting of AIE-LysoY.
Quantitative analysis of the degree of overlapping of these two fluorescence signals by Pearson's coefficient (Rr), which depicts the degree of linear dependence between two variables, gives an overlapping coefficient of 0.90. The high Rr value proves that AIE-LysoY is a lysosome-selective probe. […] Changing the staining time from 10 min to 60 min, the specificity to lysosome is retained, as well as the emission contrast.
To design the lysosome-specific bioprobe, a molecular engineering approach was employed. The precursor of AIE-LysoY, FAS-Br, and two morpholine-functionalized AIEgens, TPE-2Mor and Nred-mor were prepared and applied to cell imaging. The molecular structures of TPE-2mor and Nred-mor are shown below: […]

[8] = system: HeLa cells; assay: Cancer cell imaging for HeLa cells (TTE, TFE, fl-TFE); type: cell-based, human; settings: 10 μM; TTE in HeLa and A549, TFE and fl-TFE only in HeLa
Protocol: Cell Culture. HeLa cells were cultured in MEM containing 10% FBS and 1% antibiotics (100 units/mL penicillin and 100 µg/mL streptomycin) in a 5% CO2 humidity incubator at 37° C. Cell Imaging. Lung cancer cell A549 were cultured in DMEM containing 10% FBS and antibiotics (100 units/mL penicillin and 100 µg/mL streptomycin) in a 5% CO2 humidity incubator at 37° C. Two different kind of cells were grown overnight on a 35 mm petri dish with a cover slip. The live cells were incubated with 10 μM of TTE for 15/30 mins, TFE for 30′ and fl-TFE for 30′ and 5 h (the last two have been tested only in HeLa cells). In a typical experiment, 2 μL of a 10 mM stock solution of TTE in DMSO were diluted to 1 mL with cell culture medium, followed by further dilution to desired concentration. The cells were imaged under a fluorescent microscope (BX41 Microscope) using same excitation and emission filters: excitation filter=330-385 nm, dichroic mirror=420 nm, and emission filter=400 nm long pass.
The HeLa cells were grown overnight on a 35 mm petri dish with a cover slip. The live cells were incubated with 10 μM of TTE for 30 mins, which are shown in FIG. 17A-B. The HeLa cells were incubated with 50 μM oleic acid for 6 hrs and then were co-stained by 10 μM TTE and 1 μg/mL for 15 mins.

[9] = system: MCF-7 cells; assay: Lysosomal imaging in MCF-7 cells, co-staining with LTR; type: cell-based; settings: MCF-7, 50 nm TMX 24 hrs, matched with LTR
Protocol: The behavior of TPE-TMX in cellular settings was studied as compared to TMX. MCF-7 cells were incubated with 2 μM TPE-TMX and […] TMX for 24 hrs, respectively. The cells were then washed and directly observed under the microscope without fixation. […] However, the exact intracellular location of TMX cannot be confirmed by fluorescent microscopy because its emission wavelength is not in the range of the visible spectrum. Therefore, a series of commercial fluorescent markers were used to image drug delivery of TMX. […] On the other hand, TPE-TMX, without any aid of fluorescent dye, can be successfully monitored in the cells thanks to its intense blue emission. The controls display no emission under UV irradiation.
To further confirm the subcellular distribution of TPE-TMX, LTR was also used to co-stain MCF-7 cells with TPE-TMX. […] As expected, TPE-TMX is a specific fluorescent dye to visualize lysosomal organelle structures as well as monitor the drug release.

CCC[n+]1cc2ccc(N(c3ccccc3)c3ccccc3)cc2c(-c2ccccc2)c1-c1ccccc1 [DPA-IQ]
Emission of stained cells [1]: strong emission
Mitochondrial staining compared with MitoTracker Red FM [2]: can stain the mitochondrial organelle as good as the commercially available MitoTracker Red FM
Emission of stained cells [3]: strong emission
Emission of stained cells [4]: faint emission
Cytotoxicity by MTT assay [5]: low cytotoxicity
Emission of stained cells [6]: strong emission

Oc1cc(OCCCCCCBr)ccc1/C=N/N=C1c2ccccc2-c2ccccc21 [FAS-Br, (E)-2-(((9H-fluoren-9-ylidene)hydrazono)methyl)-5-((6-bromohexyl)oxy)phenol]
Intracellular localisation of control probes [7]: lights up intracellular lipid droplets and the recticulum structures of mitochondria in HeLa cells rather than lysosomes

CCC[n+]1cc2ccc(-c3cccc4c(OC)cccc34)cc2c(-c2ccccc2)c1-c1ccccc1 [Naph-IQ]
Mitochondrial staining compared with MitoTracker Red FM [2]: can stain the mitochondrial organelle as good as MitoTracker Red FM with higher resolution
Cytotoxicity by MTT assay [5]: low cytotoxicity

CN(C)c1ccc(/C=C(\C#N)c2ccc(-c3cc[n+](CCCCCCN4CCOCC4)cc3)cc2)cc1 [Nred-mor]
Intracellular localisation of control probes [7]: selectively accumulates in the mitochondria

c1coc(C(=C(c2ccco2)c2ccco2)c2ccco2)c1 [TFE, Tetrakis(2-furyl)ethene]
Ability to enter cells as bioprobe [8]: Only TTE has revealed to be useful for this purpose

CC/C(=C(\c1ccccc1)c1ccc(OCCN(C)C)cc1)c1ccccc1 [TMX, Tamoxifen, reference compound]
Subcellular distribution [9]: possible to be localized on the lysosomes

CCC[n+]1cc2ccc(-c3ccc(N(c4ccccc4)c4ccccc4)cc3)cc2c(-c2ccccc2)c1-c1ccccc1 [TPA-IQ]
Mitochondrial staining compared with MitoTracker Red FM [2]: can stain the mitochondrial organelle as well as the commercially available MitoTracker Red FM with higher resolution
Cytotoxicity by MTT assay [5]: low cytotoxicity

c1ccc(C(=C(c2ccccc2)c2ccc(CN3CCOCC3)cc2)c2ccc(CN3CCOCC3)cc2)cc1 [TPE-2Mor]
Intracellular localisation of control probes [7]: stains all the hydrophobic regions

c1cc2c3ccoc3c3c4occc4c4ccoc4c3c2o1 [fl-TFE, Tetrafuro[2,3-a:3′,2′-c:2″,3″-f:3″′,2″′-h]-naphthalene]
Ability to enter cells as bioprobe [8]: Only TTE has revealed to be useful for this purpose
